Experimental findings from ChEMBL document CHEMBL4392885, “Investigation of Premyrsinane and Myrsinane Esters in Euphorbia cupanii and Euphobia pithyusa with MS2LDA and Combinatorial Molecular Network Annotation Propagation” (J Nat Prod, 2019) are described below.

One data set deals with Chikungunya virus. As to the kind of experiment: Antiviral activity against Chikungunya virus Indian ocean strain 899 infected in African green monkey Vero A cells assessed as reduction in viral-induced cytopathic effect after 6 to 7 days by MTS/PMS assay. The data set is classed as functional, organism-based. Conditions: Indian ocean strain 899, Vero.
A short description of data set [1]: Selectivity index, ratio of CC50 for African green monkey Vero A cells to EC50 for Chikungunya virus Indian ocean strain 899 infected in African green monkey Vero A cells. In kind it is toxicity. Conditions: read-out: Ratio CC50/EC50.

The term EC50 denotes the midpoint of the concentration-response curve. Turning to `CCCCC/C=C\C=C\C(=O)O[C@@H]1[C@@H](C)[C@@]2(O)[C@@H](C=C(CO)C[C@]3(O)C(=O)C(C)=C[C@@H]23)[C@@H]2C(C)(C)[C@]12OC(=O)C(C)C`, the EC50 with Chikungunya virus is less than 800 nM. The selectivity ratio in data set [1] is greater than 12.

Turning to `CCCCC/C=C\C=C\C(=O)O[C@@H]1[C@@H](C)[C@@]2(O)[C@@H](C=C(CO)C[C@]3(O)C(=O)C(C)=C[C@@H]23)[C@@H]2C(C)(C)[C@]12OC(=O)C(C)CC` (stereo partly drawn), in the data set on Chikungunya virus, the EC50 was less than 800 nM. Moreover, the selectivity ratio in data set [1] is greater than 12.

On to `CCCCC/C=C/C=C\C(=O)O[C@@H]1[C@@H](C)[C@@]2(O)[C@@H](C(=O)C(CO)=C[C@]3(O)C(=O)C(C)=C[C@@H]23)[C@@H]2C(C)(C)[C@]12OC(=O)C(C)C`, for which, in the data set on Chikungunya virus, the EC50 worked out at 4500 nM. Also, the selectivity ratio in data set [1] was found to be 6.3.

As to `CCCCC/C=C/C=C\C(=O)O[C@@H]1[C@@H](C)[C@@]2(O)[C@@H](C=C(CO)C[C@]3(O)C(=O)C(C)=C[C@@H]23)[C@@H]2C(C)(C)[C@]12OC(=O)C(C)C`, the EC50 in the data set with Chikungunya virus was less than 800 nM. In addition, in data set [1], the selectivity ratio is greater than 12.
